US10131652B2, “Pyrimidinyloxy benzene derivatives as herbicides” (E. I. DU PONT DE NEMOURS AND COMPANY, priority 2014, dated 2018)

What was measured:
Assay type in all cases: in vivo
[1] = system: rice (Oryza sativa); assay: Test C flooded paddy test plant response; settings: Flood, 250 g ai/ha; scale of 0 to 100 where 0 is no effect and 100 is complete control; 13 to 15 days
How it was run: (§1)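 Scored visually on a 0–100 scale (100 = complete control) against untreated plants 13 to 15 days after treatment in the greenhouse. Compounds went into paddy water of pots flooded to 3 cm, holding 2-leaf-stage plants.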

[2] = system: barnyardgrass (Echinochloa crus-galli); assay: Test C flooded paddy test plant response; settings: Flood, 250 g ai/ha; scale of 0 to 100 where 0 is no effect and 100 is complete control; 13 to 15 days
How it was run: as §1

[3] = system: ducksalad (Heteranthera limosa); assay: Test C flooded paddy test plant response; settings: Flood, 250 g ai/ha; scale of 0 to 100 where 0 is no effect and 100 is complete control; 13 to 15 days
How it was run: as §1

[4] = system: small-flower umbrella sedge (Cyperus difformis); assay: Test C flooded paddy test plant response; settings: Flood, 250 g ai/ha; scale of 0 to 100 where 0 is no effect and 100 is complete control; 13 to 15 days
How it was run: as §1

[5] = system: morningglory (Ipomoea coccinea); assay: Test D pre-/postemergence plant response; settings: Postemergence; for Morningglory plant response rating: 31 g ai/ha, scale 0 to 100 (0 no effect, 100 complete control); for Plant response rating, Morningglory: scale 0 to 100, 0 no effect, 100 complete control
How it was run: (§2)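 Plants are held in a greenhouse 13 to 15 days after spraying, then injury is rated by eye relative to controls on a 0 to 100 scale. Treatments are preemergence on freshly sown loam/sand pots or postemergence at 1- to 4-leaf stage in peat-based medium; surfactant-containing solvent formulation.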

[6] = system: johnsongrass (Sorghum halepense); assay: Test D pre-/postemergence plant response; settings: Postemergence; for Johnsongrass plant response rating: 31 g ai/ha, scale 0 to 100 (0 no effect, 100 complete control); for Plant response rating, Johnsongrass: scale 0 to 100, 0 no effect, 100 complete control
How it was run: as §2

[7] = system: soybean (Glycine max); assay: Test D pre-/postemergence plant response; settings: Postemergence; for Soybean plant response rating: 31 g ai/ha, scale 0 to 100 (0 no effect, 100 complete control); for Plant response rating, Soybean: scale 0 to 100, 0 no effect, 100 complete control
How it was run: as §2

[8] = system: lambsquarters (Chenopodium album); assay: Test D pre-/postemergence plant response; settings: Postemergence; for Lambsquarters plant response rating: 31 g ai/ha, scale 0 to 100 (0 no effect, 100 complete control); for Plant response rating, Lambsquarters: scale 0 to 100, 0 no effect, 100 complete control
How it was run: as §2

[9] = system: winter wheat (Triticum aestivum); assay: Test D pre-/postemergence plant response; settings: Postemergence; for Wheat plant response rating: 31 g ai/ha, scale 0 to 100 (0 no effect, 100 complete control); for Plant response rating, Wheat: scale 0 to 100, 0 no effect, 100 complete control
How it was run: as §2

[10] = system: velvetleaf (Abutilon theophrasti); assay: Test D pre-/postemergence plant response; settings: Postemergence; for Velvetleaf plant response rating: 31 g ai/ha, scale 0 to 100 (0 no effect, 100 complete control); for Plant response rating, Velvetleaf: scale 0 to 100, 0 no effect, 100 complete control
How it was run: as §2

[11] = system: waterhemp (common waterhemp, Amaranthus rudis); assay: Test D pre-/postemergence plant response; settings: Postemergence; for Waterhemp plant response rating: 31 g ai/ha, scale 0 to 100 (0 no effect, 100 complete control); for Plant response rating, Waterhemp: scale 0 to 100, 0 no effect, 100 complete control
How it was run: as §2

[12] = system: corn (Zea mays); assay: Test B pre-/postemergence plant response
How it was run: (§3)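 Ratings reflect visual injury versus untreated controls, from 0 for no effect to 100 for complete control, assessed roughly 10 days after treatment. Formulation: non-phytotoxic solvent mix with surfactant; pre- and postemergence sprays on plants grown in loam soil and sand.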

[13] = system: wheat (Triticum aestivum); assay: Test B pre-/postemergence plant response
How it was run: as §3

[14] = system: barnyardgrass (Echinochloa crus-galli); assay: Test B pre-/postemergence plant response
How it was run: as §3

[15] = system: pigweed (Amaranthus retroflexus); assay: Test B pre-/postemergence plant response
How it was run: as §3

[16] = system: giant foxtail (Setaria faberii); assay: Test B pre-/postemergence plant response
How it was run: as §3

[17] = 125 g ai/ha, postemergence, 0 to 100 scale, 0 no effect, 100 complete control
[18] = Postemergence, 31 g ai/ha, 0 to 100 scale (0 no effect, 100 complete control)
[19] = 31 g ai/ha, Preemergence, 0 to 100 scale where 0 is no effect and 100 is complete control
[20] = Preemergence, 125 g ai/ha, 0 to 100 scale (0 no effect, 100 complete control)
[21] = Postemergence, 500 g ai/ha, 0 to 100 scale (0 no effect, 100 complete control)
[22] = Preemergence, 500 g ai/ha, 0 to 100 scale where 0 is no effect and 100 is complete control

## CC(F)(F)c1cc(-c2ccccc2Oc2ncc(Br)cn2)no1 [Compound 149]
[1]
  Rice plant response rating: 0
[2]
  Barnyardgrass plant response rating: 0
[3]
  Ducksalad plant response rating: 80
[4]
  Sedge, Umbrella plant response rating: 65
[5]
  Morningglory plant response rating: 60
[5]; 62 g ai/ha
  Plant response rating, Morningglory: 70
[5]; 125 g ai/ha
  Plant response rating, Morningglory: 80
[6]
  Johnsongrass plant response rating: 10
[6]; 62 g ai/ha
  Plant response rating, Johnsongrass: 15
[6]; 125 g ai/ha
  Plant response rating, Johnsongrass: 10
[7]
  Soybean plant response rating: 40
[7]; 62 g ai/ha
  Plant response rating, Soybean: 65
[7]; 125 g ai/ha
  Plant response rating, Soybean: 65
[8]
  Lambsquarters plant response rating: 70
[8]; 62 g ai/ha
  Plant response rating, Lambsquarters: 80
[8]; 125 g ai/ha
  Plant response rating, Lambsquarters: 85
[9]
  Wheat plant response rating: 0
[9]; 62 g ai/ha
  Plant response rating, Wheat: 0
[9]; 125 g ai/ha
  Plant response rating, Wheat: 10
[10]
  Velvetleaf plant response rating: 30
[10]; 62 g ai/ha
  Plant response rating, Velvetleaf: 40
[10]; 125 g ai/ha
  Plant response rating, Velvetleaf: 65
[11]
  Waterhemp plant response rating: 80
[11]; 62 g ai/ha
  Plant response rating, Waterhemp: 95
[11]; 125 g ai/ha
  Plant response rating, Waterhemp: 100
[12]; [17]
  Plant response rating, Corn: 20
[12]; [18]
  Plant response rating, Corn: 10
[13]; [17]
  Plant response rating, Wheat: 10
[13]; [18]
  Plant response rating, Wheat: 0
[14]; [19]
  Plant response rating, Barnyardgrass: 10
[14]; [17]
  Plant response rating, Barnyardgrass: 40
[14]; [18]
  Plant response rating, Barnyardgrass: 10
[14]; [20]
  Barnyardgrass plant response rating: 70
[15]; [19]
  Plant response rating, Pigweed: 80
[15]; [17]
  Plant response rating, Pigweed: 100
[15]; [18]
  Plant response rating, Pigweed: 90
[15]; [20]
  Pigweed plant response rating: 100
[16]; [19]
  Plant response rating, Foxtail, Giant: 70
[16]; [17]
  Plant response rating, Foxtail, Giant: 60
[16]; [18]
  Plant response rating, Foxtail, Giant: 10
[16]; [20]
  Foxtail, Giant plant response rating: 100

## Cc1cc(-c2ccccc2Oc2ncc(Cl)cn2)no1 [Compound 153]
[1]
  Rice plant response rating: 0
[2]
  Barnyardgrass plant response rating: 0
[3]
  Ducksalad plant response rating: 0
[4]
  Sedge, Umbrella plant response rating: 0
[5]
  Morningglory plant response rating: 5
[5]; 62 g ai/ha
  Plant response rating, Morningglory: 15
[5]; 125 g ai/ha
  Plant response rating, Morningglory: 25
[6]
  Johnsongrass plant response rating: 0
[6]; 62 g ai/ha
  Plant response rating, Johnsongrass: 5
[6]; 125 g ai/ha
  Plant response rating, Johnsongrass: 10
[7]
  Soybean plant response rating: 40
[7]; 62 g ai/ha
  Plant response rating, Soybean: 70
[7]; 125 g ai/ha
  Plant response rating, Soybean: 90
[8]
  Lambsquarters plant response rating: 35
[8]; 62 g ai/ha
  Plant response rating, Lambsquarters: 30
[8]; 125 g ai/ha
  Plant response rating, Lambsquarters: 50
[9]
  Wheat plant response rating: 0
[9]; 62 g ai/ha
  Plant response rating, Wheat: 5
[9]; 125 g ai/ha
  Plant response rating, Wheat: 10
[10]
  Velvetleaf plant response rating: 20
[10]; 62 g ai/ha
  Plant response rating, Velvetleaf: 60
[10]; 125 g ai/ha
  Plant response rating, Velvetleaf: 50
[11]
  Waterhemp plant response rating: 10
[11]; 62 g ai/ha
  Plant response rating, Waterhemp: 35
[11]; 125 g ai/ha
  Plant response rating, Waterhemp: 65
[12]; [17]
  Plant response rating, Corn: 30
[12]; [21]
  Plant response rating, Corn: 40
[13]; [17]
  Plant response rating, Wheat: 30
[13]; [21]
  Plant response rating, Wheat: 50
[14]; [17]
  Plant response rating, Barnyardgrass: 0
[14]; [21]
  Plant response rating, Barnyardgrass: 70
[14]; [20]
  Barnyardgrass plant response rating: 0
[14]; [22]
  Plant response rating, Barnyardgrass: 100
[15]; [17]
  Plant response rating, Pigweed: 100
[15]; [21]
  Plant response rating, Pigweed: 100
[15]; [20]
  Pigweed plant response rating: 100
[15]; [22]
  Plant response rating, Pigweed: 100
[16]; [17]
  Plant response rating, Foxtail, Giant: 20
[16]; [21]
  Plant response rating, Foxtail, Giant: 90
[16]; [20]
  Foxtail, Giant plant response rating: 30
[16]; [22]
  Plant response rating, Foxtail, Giant: 100

## FC(F)(F)c1cc(-c2c(I)cccc2Oc2ncc(Cl)cn2)no1 [Compound 156]
[1]
  Rice plant response rating: 0
[2]
  Barnyardgrass plant response rating: 0
[3]
  Ducksalad plant response rating: 0
[4]
  Sedge, Umbrella plant response rating: 0
[5]; 8 g ai/ha
  Plant response rating (scale 0 to 100), Morningglory: 5
[5]
  Morningglory plant response rating: 15
[5]; 62 g ai/ha
  Plant response rating, Morningglory: 65
[6]; 8 g ai/ha
  Plant response rating (scale 0 to 100), Johnsongrass: 0
[6]
  Johnsongrass plant response rating: 5
[6]; 62 g ai/ha
  Plant response rating, Johnsongrass: 10
[7]; 8 g ai/ha
  Plant response rating (scale 0 to 100), Soybean: 5
[7]
  Soybean plant response rating: 25
[7]; 62 g ai/ha
  Plant response rating, Soybean: 30
[8]; 8 g ai/ha
  Plant response rating (scale 0 to 100), Lambsquarters: 10
[8]
  Lambsquarters plant response rating: 35
[8]; 62 g ai/ha
  Plant response rating, Lambsquarters: 40
[9]; 8 g ai/ha
  Plant response rating (scale 0 to 100), Wheat: 0
[9]
  Wheat plant response rating: 5
[9]; 62 g ai/ha
  Plant response rating, Wheat: 10
[10]; 8 g ai/ha
  Plant response rating (scale 0 to 100), Velvetleaf: 0
[10]
  Velvetleaf plant response rating: 15
[10]; 62 g ai/ha
  Plant response rating, Velvetleaf: 25
[11]; 8 g ai/ha
  Plant response rating (scale 0 to 100), Waterhemp: 5
[11]
  Waterhemp plant response rating: 70
[11]; 62 g ai/ha
  Plant response rating, Waterhemp: 90
[12]; [17]
  Plant response rating, Corn: 20
[12]; [21]
  Plant response rating, Corn: 40
[13]; [17]
  Plant response rating, Wheat: 20
[13]; [21]
  Plant response rating, Wheat: 30
[14]; [17]
  Plant response rating, Barnyardgrass: 0
[14]; [21]
  Plant response rating, Barnyardgrass: 20
[14]; [20]
  Barnyardgrass plant response rating: 0
[14]; [22]
  Plant response rating, Barnyardgrass: 20
[15]; [17]
  Plant response rating, Pigweed: 90
[15]; [21]
  Plant response rating, Pigweed: 100
[15]; [20]
  Pigweed plant response rating: 80
[15]; [22]
  Plant response rating, Pigweed: 100
[16]; [17]
  Plant response rating, Foxtail, Giant: 20
[16]; [21]
  Plant response rating, Foxtail, Giant: 90
[16]; [20]
  Foxtail, Giant plant response rating: 20
[16]; [22]
  Plant response rating, Foxtail, Giant: 80
